Experimental data as given in BindingDB's records for doi:10.1021/jm800940u (Schering-Plough Research Institute, 2009).

These molecules were tested against Genome polyprotein (Hepatitis C virus genotype 1a (isolate H77), UniProt P27958) (assay: Continuous Spectrophotometric Assay). Conditions: not given.
Genome polyprotein, sequence (P27958 1027-1657 limits assumed): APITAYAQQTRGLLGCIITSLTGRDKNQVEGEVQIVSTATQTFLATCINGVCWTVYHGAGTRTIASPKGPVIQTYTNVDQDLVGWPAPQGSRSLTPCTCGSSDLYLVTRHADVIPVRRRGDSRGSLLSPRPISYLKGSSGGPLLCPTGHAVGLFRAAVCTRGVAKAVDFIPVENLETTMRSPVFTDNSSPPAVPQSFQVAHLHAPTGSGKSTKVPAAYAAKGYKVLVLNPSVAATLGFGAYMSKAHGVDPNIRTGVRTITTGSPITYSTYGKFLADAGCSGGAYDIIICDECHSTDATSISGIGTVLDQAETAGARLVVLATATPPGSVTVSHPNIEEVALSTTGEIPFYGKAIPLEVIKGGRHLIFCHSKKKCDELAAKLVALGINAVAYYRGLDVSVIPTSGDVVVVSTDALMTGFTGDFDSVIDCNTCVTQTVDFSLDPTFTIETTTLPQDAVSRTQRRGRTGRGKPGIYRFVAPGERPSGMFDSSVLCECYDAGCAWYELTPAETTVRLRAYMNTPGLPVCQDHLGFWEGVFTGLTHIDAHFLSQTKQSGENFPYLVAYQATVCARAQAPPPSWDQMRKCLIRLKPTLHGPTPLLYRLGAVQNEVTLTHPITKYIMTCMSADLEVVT
Description: Proteolytic cleavage of the ester linkage between the Nva (L-norvaline) and the chromophore (PAP) was monitored for change in absorbance at 370 nm. Initial velocities were determined using linear regression and kinetic constants were obtained by fitting the data to the Michaelis-Menten equation.
`C=CCNC(=O)C(=O)[C@@H]1CCCCCCCCC[C@H](NC(=O)N[C@H](CN2C(=O)CC(C)(C)CC2=O)C(C)(C)C)C(=O)N2C[C@H]3[C@@H]([C@H]2C(=O)N1)C3(C)C` [2-[(3S,13S,16S,17R,19S)-3-({[(2S)-1-(4,4-dimethyl-2,6-dioxopiperidin-1-yl)-3,3-dimethylbutan-2-yl]carbamoyl}amino)-18,18-dimethyl-2,15-dioxo-1,14-diazatricyclo[14.4.0.0^{17,19}]icosan-13-yl]-2-oxo-N-(prop-2-en-1-yl)acetamide] was tested, and the Ki was 0.002 µM. Work on `C=CCNC(=O)C(=O)[C@@H]1CCCCCCCCC[C@H](NC(=O)N[C@H](CN2C(=O)c3ccccc3C2=O)C(C)(C)C)C(=O)N2C[C@H]3[C@@H]([C@H]2C(=O)N1)C3(C)C` [2-[(3S,13S,16S,17R,19S)-3-({[(2S)-1-(1,3-dioxo-2,3-dihydro-1H-isoindol-2-yl)-3,3-dimethylbutan-2-yl]carbamoyl}amino)-18,18-dimethyl-2,15-dioxo-1,14-diazatricyclo[14.4.0.0^{17,19}]icosan-13-yl]-2-oxo-N-(prop-2-en-1-yl)acetamide] yielded a Ki of 0.016 µM. `C=CCNC(=O)C(=O)[C@@H]1CCCCCCCCC[C@H](NC(=O)N[C@H](CN2C(=O)CN(C)CC2=O)C(C)(C)C)C(=O)N2C[C@H]3[C@@H]([C@H]2C(=O)N1)C3(C)C` [2-[(3S,13S,16S,17R,19S)-3-({[(2S)-3,3-dimethyl-1-(4-methyl-2,6-dioxopiperazin-1-yl)butan-2-yl]carbamoyl}amino)-18,18-dimethyl-2,15-dioxo-1,14-diazatricyclo[14.4.0.0^{17,19}]icosan-13-yl]-2-oxo-N-(prop-2-en-1-yl)acetamide] showed a Ki of 0.004 µM. With `C=CCNC(=O)C(=O)[C@@H]1CCCCCCCCC[C@H](NC(=O)N[C@H](CN(C)S(=O)(=O)c2ccccn2)C(C)(C)C)C(=O)N2C[C@H]3[C@@H]([C@H]2C(=O)N1)C3(C)C` [2-[(3S,13S,16S,17R,19S)-3-({[(2S)-3,3-dimethyl-1-[methyl(pyridine-2-)sulfonamido]butan-2-yl]carbamoyl}amino)-18,18-dimethyl-2,15-dioxo-1,14-diazatricyclo[14.4.0.0^{17,19}]icosan-13-yl]-2-oxo-N-(prop-2-en-1-yl)acetamide] the Ki was 0.007 µM. In the case of `C=CCNC(=O)C(=O)[C@@H]1CCCCCCCCC[C@H](NC(=O)N[C@H](CN(C)S(C)(=O)=O)C(C)(C)C)C(=O)N2C[C@H]3[C@@H]([C@H]2C(=O)N1)C3(C)C` [2-[(3S,13S,16S,17R,19S)-3-({[(2S)-1-[methane(methyl)sulfonamido]-3,3-dimethylbutan-2-yl]carbamoyl}amino)-18,18-dimethyl-2,15-dioxo-1,14-diazatricyclo[14.4.0.0^{17,19}]icosan-13-yl]-2-oxo-N-(prop-2-en-1-yl)acetamide], the Ki is reported as 0.003 µM. For `C=CCNC(=O)C(=O)[C@@H]1CCCCCCCCC[C@H](NC(=O)N[C@H](CN(C)S(=O)(=O)N(C)C)C(C)(C)C)C(=O)N2C[C@H]3[C@@H]([C@H]2C(=O)N1)C3(C)C` [2-[(3S,13S,16S,17R,19S)-3-({[(2S)-1-[(dimethylsulfamoyl)(methyl)amino]-3,3-dimethylbutan-2-yl]carbamoyl}amino)-18,18-dimethyl-2,15-dioxo-1,14-diazatricyclo[14.4.0.0^{17,19}]icosan-13-yl]-2-oxo-N-(prop-2-en-1-yl)acetamide], the Ki was 0.013 µM. Molecule `C=CCNC(=O)C(=O)[C@@H]1CCCCCCCCC[C@H](NC(=O)N[C@H](CN2CCC(C)(C)CC2=O)C(C)(C)C)C(=O)N2C[C@H]3[C@@H]([C@H]2C(=O)N1)C3(C)C` [2-[(3S,13S,16S,17R,19S)-3-({[(2S)-1-(4,4-dimethyl-2-oxopiperidin-1-yl)-3,3-dimethylbutan-2-yl]carbamoyl}amino)-18,18-dimethyl-2,15-dioxo-1,14-diazatricyclo[14.4.0.0^{17,19}]icosan-13-yl]-2-oxo-N-(prop-2-en-1-yl)acetamide] has a Ki of 0.002 µM.

Same assay, conditions: pH 6.5; 30 °C
Work on `CN(C[C@@H](NC(=O)N[C@H]1CCCCCCCCC[C@@H](C(=O)C(N)=O)NC(=O)[C@@H]2[C@@H]3[C@H](CN2C1=O)C3(C)C)C(C)(C)C)S(=O)(=O)c1cccs1` [2-[(3S,13S,16S,17R,19S)-3-({[(2S)-3,3-dimethyl-1-[methyl(thiophene-2-)sulfonamido]butan-2-yl]carbamoyl}amino)-18,18-dimethyl-2,15-dioxo-1,14-diazatricyclo[14.4.0.0^{17,19}]icosan-13-yl]-2-oxoacetamide] yielded a Ki of 0.002 µM. Work on `CC(C)(C)NC(=O)C(=O)[C@@H]1CCCCCCCCCC[C@H](NC(=O)OC(C)(C)C)C(=O)N2C[C@H]3[C@@H]([C@H]2C(=O)N1)C3(C)C` [tert-butyl N-[(3S,14S,17S,18R,20S)-14-[(tert-butylcarbamoyl)carbonyl]-19,19-dimethyl-2,16-dioxo-1,15-diazatricyclo[15.4.0.0^{18,20}]henicosan-3-yl]carbamate] yielded a Ki of 6 µM. For `CC(C)(C)OC(=O)[C@@H](NC(=O)N[C@H]1CCCCCCCCCC[C@@H](C(=O)C(N)=O)NC(=O)[C@@H]2[C@@H]3[C@H](CN2C1=O)C3(C)C)C(C)(C)C` [tert-butyl (2S)-2-({[(3S,14S,17S,18R,20S)-14-(carbamoylcarbonyl)-19,19-dimethyl-2,16-dioxo-1,15-diazatricyclo[15.4.0.0^{18,20}]henicosan-3-yl]carbamoyl}amino)-3,3-dimethylbutanoate], the Ki was 0.037 µM. `CN(C[C@@H](NC(=O)N[C@H]1CCCCCCCCC[C@@H](C(=O)C(=O)NCC2CC2)NC(=O)[C@@H]2[C@@H]3[C@H](CN2C1=O)C3(C)C)C(C)(C)C)S(=O)(=O)c1cccs1` [N-(cyclopropylmethyl)-2-[(3S,13S,16S,17R,19S)-3-({[(2S)-3,3-dimethyl-1-[methyl(thiophene-2-)sulfonamido]butan-2-yl]carbamoyl}amino)-18,18-dimethyl-2,15-dioxo-1,14-diazatricyclo[14.4.0.0^{17,19}]icosan-13-yl]-2-oxoacetamide] was tested, and the Ki was 0.021 µM. `CC(C)(C)OC(=O)N[C@H]1CCCCCCCCC[C@@H](C(=O)C(N)=O)NC(=O)[C@@H]2[C@@H]3[C@H](CN2C1=O)C3(C)C` [tert-butyl N-[(3S,13S,16S,17R,19S)-13-(carbamoylcarbonyl)-18,18-dimethyl-2,15-dioxo-1,14-diazatricyclo[14.4.0.0^{17,19}]icosan-3-yl]carbamate] gave a Ki of 0.03 µM. `CC(C)(C)OC(=O)N[C@H]1CCCCCCCC[C@@H](C(=O)C(N)=O)NC(=O)[C@@H]2[C@@H]3[C@H](CN2C1=O)C3(C)C` [tert-butyl N-[(3S,12S,15S,16R,18S)-12-(carbamoylcarbonyl)-17,17-dimethyl-2,14-dioxo-1,13-diazatricyclo[13.4.0.0^{16,18}]nonadecan-3-yl]carbamate] showed a Ki of 0.036 µM. Molecule `CN(C)C(=O)[C@@H](NC(=O)CNC(=O)C(=O)[C@@H]1CCCC/C=C/CCCC[C@H](NC(=O)OC(C)(C)C)C(=O)N2C[C@H]3[C@@H]([C@H]2C(=O)N1)C3(C)C)c1ccccc1` [tert-butyl N-[(3S,8E,14S,17S,18R,20S)-14-{[({[(S)-(dimethylcarbamoyl)(phenyl)methyl]carbamoyl}methyl)carbamoyl]carbonyl}-19,19-dimethyl-2,16-dioxo-1,15-diazatricyclo[15.4.0.0^{18,20}]henicos-8-en-3-yl]carbamate] has a Ki of 0.005 µM.
